{"source": "patent US20230158098A1", "about": "“COMPOSITION FOR PROMOTING ENERGY EXPENDITURE” (MORINAGA MILK INDUSTRY CO., LTD., priority 2017, published 2023)", "tested_on": "Male C57BL/6J mice", "assay": "Energy expenditure by indirect calorimetry, administration at rest 2", "type": "in vivo", "conditions": "mice fasted 1 hour, oral, hydrolysates 1.0 mg/g body weight, MKP peptide 0.4 μg/g body weight, randomized crossover, FIG. 3", "method": "Male C57BL/6J mice as laboratory animals were divided into the following four groups: rest group, casein hydrolysate administration group, MKP peptide administration group, and whey protein hydrolysate administration group. The mice were fasted for 1 hour. Subsequently, a casein hydrolysate and a whey protein hydrolysate each in an amount of 1.0 mg/g body weight and a MKP peptide in an amount of 0.4 μg/g body weight were orally administered, and energy expenditure was measured. The number of mice used in the experiment was n=12 in each group, and a randomized crossover test was employed.\nIncidentally, as the casein hydrolysate and the whey protein hydrolysate, those prepared in <1>, (1) to (2), above were used, and, as the MKP peptide, a synthetic peptide was purchased from Peptide Institute and used. Energy expenditure for 60 minutes after administration was determined.\nAs compared with the rest group, in all the casein hydrolysate administration group, MKP peptide administration group, and whey protein hydrolysate administration group, the level of energy expenditure was higher.", "data": [{"substance": "H-Met-Lys-Pro-OH [MKP peptide]", "values": [{"measurement": "average energy expenditure for 60 minutes after administration compared with the rest group", "result": "higher"}]}]}
